Experimental findings from patent US20240109917A1 (ACTELION PHARMACEUTICALS LTD, priority 2020, published 2024) are described below.

Test [1] deals with Tb-labeled inactive PDGFRβ (Homo sapiens (Human), UniProt P09619). The test is described as follows: PDGFRβ LanthaScreen Assay. In kind it is binding. Conditions: read-out: PDGFR Lantha IC50. A general note: TR-FRET usually uses a lanthanide donor and a delayed reading to cut background.
Test [2] concerns the target PDGFRβ (Rattus norvegicus (Rat), UniProt Q05030). Description: PDGFRβ Cellular Assay (PDGFRb P-Y751 HTRF in A10 cells stimulated with PDGF-BB). In kind it is cell-based. Put shortly: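 Rat A10 cells, plated overnight, were treated with compound for 3 hours, then stimulated with PDGF-BB (working stock 100 ng/mL in 10% FBS medium). After lysis, PDGFRβ P-Y751 was detected by HTRF.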

The target in test [3] is VEGFR2, unphosphorylated (Homo sapiens (Human), UniProt P35968). Description: VEGFR ADP GLO Assay. The class given is biochemical. In general terms: ADP-Glo first removes unused ATP, then detects ADP through luciferase.
Chain of VEGFR2, unphosphorylated (P35968 20-1356): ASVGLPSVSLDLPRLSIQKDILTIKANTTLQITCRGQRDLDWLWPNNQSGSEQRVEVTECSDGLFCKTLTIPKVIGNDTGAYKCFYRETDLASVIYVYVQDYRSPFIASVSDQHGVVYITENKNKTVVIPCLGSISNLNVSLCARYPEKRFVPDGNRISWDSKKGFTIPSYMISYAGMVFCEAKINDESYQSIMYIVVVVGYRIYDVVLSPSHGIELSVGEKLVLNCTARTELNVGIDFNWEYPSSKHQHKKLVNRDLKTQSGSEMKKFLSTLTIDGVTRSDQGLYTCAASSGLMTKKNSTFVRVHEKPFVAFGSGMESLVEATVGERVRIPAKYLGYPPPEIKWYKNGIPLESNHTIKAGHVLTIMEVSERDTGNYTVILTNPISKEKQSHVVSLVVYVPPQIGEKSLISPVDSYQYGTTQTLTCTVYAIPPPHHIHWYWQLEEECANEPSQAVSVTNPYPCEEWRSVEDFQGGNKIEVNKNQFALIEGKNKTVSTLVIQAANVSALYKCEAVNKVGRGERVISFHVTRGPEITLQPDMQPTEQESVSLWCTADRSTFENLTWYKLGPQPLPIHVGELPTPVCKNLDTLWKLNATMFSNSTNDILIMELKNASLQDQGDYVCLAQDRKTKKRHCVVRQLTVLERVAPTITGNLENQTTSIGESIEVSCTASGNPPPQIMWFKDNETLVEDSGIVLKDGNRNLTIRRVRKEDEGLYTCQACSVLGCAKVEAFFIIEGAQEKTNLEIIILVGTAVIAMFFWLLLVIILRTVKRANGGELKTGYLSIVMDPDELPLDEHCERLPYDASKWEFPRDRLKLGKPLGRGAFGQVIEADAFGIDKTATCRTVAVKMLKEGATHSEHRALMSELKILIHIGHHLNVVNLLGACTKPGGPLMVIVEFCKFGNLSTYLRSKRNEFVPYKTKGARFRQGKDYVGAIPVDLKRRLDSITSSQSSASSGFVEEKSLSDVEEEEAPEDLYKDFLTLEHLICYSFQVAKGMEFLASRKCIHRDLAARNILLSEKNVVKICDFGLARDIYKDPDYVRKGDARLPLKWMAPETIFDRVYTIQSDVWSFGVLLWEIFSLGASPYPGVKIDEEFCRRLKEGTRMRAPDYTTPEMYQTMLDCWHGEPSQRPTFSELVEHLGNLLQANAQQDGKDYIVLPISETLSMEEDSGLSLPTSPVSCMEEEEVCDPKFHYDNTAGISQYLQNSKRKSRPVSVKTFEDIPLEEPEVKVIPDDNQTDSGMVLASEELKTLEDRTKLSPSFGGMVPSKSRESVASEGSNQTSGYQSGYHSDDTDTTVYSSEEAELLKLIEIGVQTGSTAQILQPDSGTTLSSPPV

pIC50: −log10 of the molar value. Where two headings read alike, the source gives them in different places. Where only a bound is given, the exact number is not on record here.

Chain of PDGFRβ (Q05030 32-1097): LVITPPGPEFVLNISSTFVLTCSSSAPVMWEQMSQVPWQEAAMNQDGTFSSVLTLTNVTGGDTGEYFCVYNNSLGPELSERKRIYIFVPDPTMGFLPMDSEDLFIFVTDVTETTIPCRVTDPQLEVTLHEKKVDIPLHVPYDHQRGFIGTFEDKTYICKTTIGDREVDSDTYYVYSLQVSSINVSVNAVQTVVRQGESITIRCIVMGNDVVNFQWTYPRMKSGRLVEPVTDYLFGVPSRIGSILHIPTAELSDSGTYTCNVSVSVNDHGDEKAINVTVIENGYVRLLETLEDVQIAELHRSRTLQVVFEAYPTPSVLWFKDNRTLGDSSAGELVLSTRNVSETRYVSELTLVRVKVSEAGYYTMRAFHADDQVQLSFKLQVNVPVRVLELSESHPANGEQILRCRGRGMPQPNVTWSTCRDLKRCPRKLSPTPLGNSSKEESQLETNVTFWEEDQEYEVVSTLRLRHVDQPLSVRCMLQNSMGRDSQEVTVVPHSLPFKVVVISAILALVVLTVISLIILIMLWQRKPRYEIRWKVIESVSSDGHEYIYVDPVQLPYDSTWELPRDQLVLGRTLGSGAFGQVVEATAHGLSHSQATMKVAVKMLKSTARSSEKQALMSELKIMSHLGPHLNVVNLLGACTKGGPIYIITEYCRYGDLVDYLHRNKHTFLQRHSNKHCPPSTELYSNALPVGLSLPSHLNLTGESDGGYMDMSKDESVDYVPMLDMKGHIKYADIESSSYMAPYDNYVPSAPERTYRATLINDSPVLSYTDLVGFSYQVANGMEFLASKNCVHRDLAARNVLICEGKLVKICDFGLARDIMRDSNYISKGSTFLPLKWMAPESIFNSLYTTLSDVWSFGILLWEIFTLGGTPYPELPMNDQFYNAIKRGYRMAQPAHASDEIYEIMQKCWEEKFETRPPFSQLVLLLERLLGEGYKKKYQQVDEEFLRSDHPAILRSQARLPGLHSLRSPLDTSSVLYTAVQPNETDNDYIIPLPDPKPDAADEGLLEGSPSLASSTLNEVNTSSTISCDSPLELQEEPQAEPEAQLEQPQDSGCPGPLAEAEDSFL
Chain of Tb-labeled inactive PDGFRβ (P09619 33-1106): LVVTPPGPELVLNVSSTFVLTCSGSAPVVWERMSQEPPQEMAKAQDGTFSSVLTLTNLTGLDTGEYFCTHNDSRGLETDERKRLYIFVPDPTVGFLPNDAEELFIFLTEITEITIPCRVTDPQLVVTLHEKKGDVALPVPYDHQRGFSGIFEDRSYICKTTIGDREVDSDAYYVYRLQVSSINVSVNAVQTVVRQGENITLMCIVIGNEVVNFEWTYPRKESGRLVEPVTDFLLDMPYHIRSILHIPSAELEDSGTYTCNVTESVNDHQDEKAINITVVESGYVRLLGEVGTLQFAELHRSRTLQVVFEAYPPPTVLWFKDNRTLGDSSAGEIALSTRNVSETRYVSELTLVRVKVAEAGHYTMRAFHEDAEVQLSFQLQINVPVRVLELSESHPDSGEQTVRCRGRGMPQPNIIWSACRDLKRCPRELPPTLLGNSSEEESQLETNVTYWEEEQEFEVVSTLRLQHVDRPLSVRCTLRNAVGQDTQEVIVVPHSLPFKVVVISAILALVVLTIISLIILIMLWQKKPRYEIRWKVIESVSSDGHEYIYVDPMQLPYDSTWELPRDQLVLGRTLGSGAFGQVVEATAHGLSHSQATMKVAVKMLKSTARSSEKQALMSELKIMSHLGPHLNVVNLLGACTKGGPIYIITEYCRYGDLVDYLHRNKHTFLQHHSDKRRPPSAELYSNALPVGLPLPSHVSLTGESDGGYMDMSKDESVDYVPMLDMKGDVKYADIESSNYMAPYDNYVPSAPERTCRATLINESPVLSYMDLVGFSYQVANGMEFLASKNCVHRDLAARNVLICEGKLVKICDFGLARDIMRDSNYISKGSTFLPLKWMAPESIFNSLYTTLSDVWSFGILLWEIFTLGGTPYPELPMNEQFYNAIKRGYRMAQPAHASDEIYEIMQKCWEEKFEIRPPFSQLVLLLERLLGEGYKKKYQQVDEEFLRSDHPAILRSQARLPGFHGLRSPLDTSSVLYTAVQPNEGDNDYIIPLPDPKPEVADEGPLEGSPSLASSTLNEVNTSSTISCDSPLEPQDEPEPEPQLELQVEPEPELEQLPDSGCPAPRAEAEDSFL

As usually defined, the pIC50 is the IC50 on a negative log10 scale, so that one unit is a factor of ten. `COc1ncccc1-c1cn2ncc(C(=O)Nc3cc(C(=O)NCCN4CCCC4(C)C)cnc3C)c2s1` [Example 226, N-(5-((2-(2,2-Dimethylpyrrolidin-1-yl)ethyl)carbamoyl)-2-methylpyridin-3-yl)-2-(2-methoxypyridin-3-yl)pyrazolo[5,1-b]thiazole-7-carboxamide]: the figures for the pIC50 in test [1], in test [2] (read-out: PDGFR Cellular IC50) and in test [3] were 8.89, 8.49 and less than 5.60, respectively.

As for `Cc1ncc(C(=O)NCCN2CCCC2)cc1NC(=O)c1cnn2cc(-c3cn(C)nc3C(F)(F)F)sc12` [Example 227, 2-(1-Methyl-3-(trifluoromethyl)-1H-pyrazol-4-yl)-N-(2-methyl-5-((2-(pyrrolidin-1-yl)ethyl)carbamoyl)pyridin-3-yl)pyrazolo[5,1-b]thiazole-7-carboxamide], the pIC50 in test [1] is 7.67; in test [2] (read-out: PDGFR Cellular IC50) it was 6.36; in test [3], less than 6.08.

`COc1ncccc1-c1cn2ncc(C(=O)Nc3cc(C(=O)NCCN4CCCC4C)cnc3C)c2s1` (stereo not drawn) [Example 228, 2-(2-Methoxypyridin-3-yl)-N-(2-methyl-5-((2-(2-methylpyrrolidin-1-yl)ethyl)carbamoyl)pyridin-3-yl)pyrazolo[5,1-b]thiazole-7-carboxamide]: the values for the negative-log IC50 (pIC50) in test [1], in test [2] (read-out: PDGFR Cellular IC50) and in test [3] were 8.82, 8.25 and less than 6.08, respectively.

Take `COc1ncccc1-c1cn2ncc(C(=O)Nc3cc(C(=O)NCCN4CCCC4)cnc3C)c2s1` [Example 229, 2-(2-Methoxypyridin-3-yl)-N-(2-methyl-5-((2-(pyrrolidin-1-yl)ethyl)carbamoyl)pyridin-3-yl)pyrazolo[5,1-b]thiazole-7-carboxamide]: the values for the pIC50 in test [1], in test [2] (read-out: PDGFR Cellular IC50) and in test [3] were 8.80, 7.81 and less than 6.08, respectively.

Consider `Cc1ncc(C(=O)NCCN2CCCC2(C)C)cc1NC(=O)c1cnn2cc(-c3cncc(S(C)(=O)=O)c3)sc12` [Example 230, N-(5-((2-(2,2-dimethylpyrrolidin-1-yl)ethyl)carbamoyl)-2-methylpyridin-3-yl)-2-(5-(methylsulfonyl)pyridin-3-yl)pyrazolo[5,1-b]thiazole-7-carboxamide], for which the figures for the pIC50 in test [1], in test [2] (read-out: PDGFR Cellular IC50) and in test [3] were 7.08, 6.10 and less than 5.60, respectively.

For the compound `Cc1ncc(C(=O)NCCN2CCCC2(C)C)cc1NC(=O)c1cnn2cc(-c3c(C)n[nH]c3C)sc12` [Example 231, 2-(3,5-Dimethyl-1H-pyrazol-4-yl)-N-(5-((2-(2,2-dimethylpyrrolidin-1-yl)ethyl)carbamoyl)-2-methylpyridin-3-yl)pyrazolo[5,1-b]thiazole-7-carboxamide], the pIC50 is 8.48 in test [1], 7.14 in test [2] (read-out: PDGFR Cellular IC50) and less than 5.12 in test [3].

Take `Cc1ncc(NC(=O)CN2CCN(C)CC2)cc1NC(=O)c1cnn2cc(-c3cnn(C)c3)sc12` [Example 232, 2-(1-methyl-1H-pyrazol-4-yl)-N-(2-methyl-5-(2-(4-methylpiperazin-1-yl)acetamido)pyridin-3-yl)pyrazolo[5,1-b]thiazole-7-carboxamide]: the negative logarithm of the IC50 (pIC50) is 6.12 in test [1], 5.76 in test [2] (read-out: PDGFR Cellular IC50) and less than 5.12 in test [3].

As to `COc1ncccc1-c1cn2ncc(C(=O)Nc3cc(NC(=O)CN4CCCC4(C)C)cnc3C)c2s1` [Example 233, N-(5-(2-(2,2-dimethylpyrrolidin-1-yl)acetamido)-2-methylpyridin-3-yl)-2-(2-methoxypyridin-3-yl)pyrazolo[5,1-b]thiazole-7-carboxamide], the negative-log IC50 (pIC50) is 8.96 in test [1], 8.89 in test [2] (read-out: PDGFR Cellular IC50) and less than 5.12 in test [3].

As for `Cc1ncc(C(=O)NCCNCCO)cc1NC(=O)c1cnn2cc(-c3cnn(C)c3)sc12` [Example 234, N-(5-((2-((2-hydroxyethyl)amino)ethyl)carbamoyl)-2-methylpyridin-3-yl)-2-(1-methyl-1H-pyrazol-4-yl)pyrazolo[5,1-b]thiazole-7-carboxamide], the results for the pIC50 in test [1], in test [2] (read-out: PDGFR Cellular IC50) and in test [3] were 6.55, less than 5.52 and less than 5.12, respectively.

Turning to `Cc1ncc(C(=O)NCCN(CCO)CC2CCCCC2)cc1NC(=O)c1cnn2cc(-c3cnn(C)c3)sc12` [Example 235, N-(5-((2-((cyclohexylmethyl)(2-hydroxyethyl)amino)ethyl)carbamoyl)-2-methylpyridin-3-yl)-2-(1-methyl-1H-pyrazol-4-yl)pyrazolo[5,1-b]thiazole-7-carboxamide], the negative logarithm of the IC50 (pIC50) in test [1] is 8.28; in test [2] (read-out: PDGFR Cellular IC50) it was 8.02; in test [3], less than 5.12.

In the case of `Cc1ncc(C(=O)NC[C@H]2CCCN2CCO)cc1NC(=O)c1cnn2cc(-c3cnn(C)c3)sc12` [Example 236, (R)—N-(5-(((1-(2-hydroxyethyl)pyrrolidin-2-yl)methyl)carbamoyl)-2-methylpyridin-3-yl)-2-(1-methyl-1H-pyrazol-4-yl)pyrazolo[5,1-b]thiazole-7-carboxamide], the figures for the pIC50 in test [1], in test [2] (read-out: PDGFR Cellular IC50) and in test [3] were 7.08, 6.17 and less than 5.60, respectively.

For the compound `Cc1ncc(C(=O)NC2CN(C(C)(C)C)C2)cc1NC(=O)c1cnn2cc(-c3cnn(C)c3)sc12` [Example 237, N-(5-((1-(tert-butyl)azetidin-3-yl)carbamoyl)-2-methylpyridin-3-yl)-2-(1-methyl-1H-pyrazol-4-yl)pyrazolo[5,1-b]thiazole-7-carboxamide], the negative-log IC50 (pIC50) in test [1] was 7.24; in test [2] (PDGFR Cellular IC50), 6.21; in test [3], less than 5.12.

As for `Cc1ncc(C(=O)NC2CN(C(C)(C)C)C2)cc1NC(=O)c1cnn2cc(-c3cccc4c3cnn4C)sc12` [Example 238, N-(5-((1-(tert-butyl)azetidin-3-yl)carbamoyl)-2-methylpyridin-3-yl)-2-(1-methyl-1H-indazol-4-yl)pyrazolo[5,1-b]thiazole-7-carboxamide], the negative-log IC50 (pIC50) in test [1] was 8.12; in test [2] (read-out: PDGFR Cellular IC50), 6.74; in test [3] it was less than 5.60.

`Cc1ncc(C(=O)N2CC2CNC(C)(C)C)cc1NC(=O)c1cnn2cc(-c3cccc4c3cnn4C)sc12` (stereo not drawn) [Example 239, N-(5-(2-((tert-butylamino)methyl)aziridine-1-carbonyl)-2-methylpyridin-3-yl)-2-(1-methyl-1H-indazol-4-yl)pyrazolo[5,1-b]thiazole-7-carboxamide]: the pIC50 in test [1] is 7.10; in test [2] (read-out: PDGFR Cellular IC50), 6.46; in test [3], less than 5.60.

Turning to `Cc1ncc(C(=O)NCCN2CCCC2(C)C)cc1NC(=O)c1cnn2cc(-c3cccc4c3cnn4C)sc12` [Example 240, N-(5-((2-(2,2-dimethylpyrrolidin-1-yl)ethyl)carbamoyl)-2-methylpyridin-3-yl)-2-(1-methyl-1H-indazol-4-yl)pyrazolo[5,1-b]thiazole-7-carboxamide], the pIC50 was 8.70 in test [1], 7.93 in test [2] (read-out: PDGFR Cellular IC50) and less than 5.60 in test [3].

With `Cc1ncc(NC(=O)CCN2CCCC2(C)C)cc1NC(=O)c1cnn2cc(-c3cccc4c3cnn4C)sc12` [Example 241, N-(5-(3-(2,2-dimethylpyrrolidin-1-yl)propanamido)-2-methylpyridin-3-yl)-2-(1-methyl-1H-indazol-4-yl)pyrazolo[5,1-b]thiazole-7-carboxamide], the negative logarithm of the IC50 (pIC50) in test [1] is 9.15; in test [2] (read-out: PDGFR Cellular IC50), 8.57; in test [3], less than 5.60.

`COc1ncccc1-c1cn2ncc(C(=O)Nc3cc(C(=O)NCCN4CCC[C@H]4C)cnc3C)c2s1` [Example 242, (R)-2-(2-methoxypyridin-3-yl)-N-(2-methyl-5-((2-(2-methylpyrrolidin-1-yl)ethyl)carbamoyl)pyridin-3-yl)pyrazolo[5,1-b]thiazole-7-carboxamide]: the pIC50 in test [1] was 8.77; in test [2] (read-out: PDGFR Cellular IC50) it was 8.21; in test [3], less than 5.12.

Regarding `Cc1ncc(NC(=O)OC[C@@H]2CCCN2C)cc1NC(=O)c1cnn2cc(-c3cnn(C)c3)sc12` [Example 243, (S)-(1-methylpyrrolidin-2-yl)methyl (6-methyl-5-(2-(1-methyl-1H-pyrazol-4-yl)pyrazolo[5,1-b]thiazole-7-carboxamido)pyridin-3-yl)carbamate], the pIC50 was 7.88 in test [1], 7.69 in test [2] (PDGFR Cellular IC50) and less than 5.12 in test [3].

On to `Cc1ncc(NC(=O)OC[C@H]2CCCN2C)cc1NC(=O)c1cnn2cc(-c3cnn(C)c3)sc12` [Example 244, (R)-(1-methylpyrrolidin-2-yl)methyl (6-methyl-5-(2-(1-methyl-1H-pyrazol-4-yl)pyrazolo[5,1-b]thiazole-7-carboxamido)pyridin-3-yl)carbamate], for which the negative-log IC50 (pIC50) is 7.82 in test [1], 7.64 in test [2] (PDGFR Cellular IC50) and less than 5.12 in test [3].

In the case of `Cc1ncc(NC(=O)OC[C@@H]2CCCN2C(C)C)cc1NC(=O)c1cnn2cc(-c3cnn(C)c3)sc12` [Example 245, (S)-(1-isopropylpyrrolidin-2-yl)methyl (6-methyl-5-(2-(1-methyl-1H-pyrazol-4-yl)pyrazolo[5,1-b]thiazole-7-carboxamido)pyridin-3-yl)carbamate], the negative-log IC50 (pIC50) was 7.97 in test [1], 7.74 in test [2] (read-out: PDGFR Cellular IC50) and less than 5.12 in test [3].

In the case of `Cc1ncc(NC(=O)OCCN2CCCC2)cc1NC(=O)c1cnn2cc(-c3cnn(C)c3)sc12` [Example 246, 2-(pyrrolidin-1-yl)ethyl (6-methyl-5-(2-(1-methyl-1H-pyrazol-4-yl)pyrazolo[5,1-b]thiazole-7-carboxamido)pyridin-3-yl)carbamate], the negative-log IC50 (pIC50) was 7.19 in test [1], 6.95 in test [2] (read-out: PDGFR Cellular IC50) and less than 5.12 in test [3].

With `Cc1ncc(NC(=O)OCCN2CCCC2(C)C)cc1NC(=O)c1cnn2cc(-c3cnn(C)c3)sc12` [Example 247, 2-(2,2-dimethylpyrrolidin-1-yl)ethyl (6-methyl-5-(2-(1-methyl-1H-pyrazol-4-yl)pyrazolo[5,1-b]thiazole-7-carboxamido)pyridin-3-yl)carbamate], the negative-log IC50 (pIC50) in test [1] was 7.71; in test [2] (read-out: PDGFR Cellular IC50) it was 7.74; in test [3] it was less than 5.12.
